Laboratory results from patent publication US20030092613A1, “Alpha7 nicotinic receptor peptides as ligands for beta amyloid peptides” (priority 2000, published 2003).
Read-outs that look alike come from different tables or passages of the source.

Columns and labels:
[1] = tested on: guinea pig hippocampal synaptosomes; test: ACh release from guinea pig hippocampal synaptosomes (β-amyloid inhibition of K+-evoked release); format: cell-based; conditions: attenuation of β-amyloid's inhibition on potassium-evoked ACh release
Description: ACh release from guinea pig hippocampal synaptosomes: Synaptosomes (P2 fraction) were prepared from guinea pig hippocampus as described previously and re-suspended in a Krebs-Ringer solution containing 0.1 μM [methyl-^3H]choline chloride (NEN, Boston, Mass.) and incubated at 37° C. for 30 min. Unincorporated choline was removed by washing and the synaptosomes were resuspended in Krebs-Ringer solution to 10 mg/mL. ACh release from synaptosomes was measured using the parallel superfusion chambers (Hugo Sachs Elektronik, March-Hugstetten, Germany) according to that described earlier (Wang, H. -Y. et al Neuropeptides 1999; 33, 197-205). […]
The tissues were treated with peptides and ACh release was evoked by superfusing with 65 mM K^+-Krebs-Ringer (made by equimolar replacement of NaCl with KCl) for 30 seconds. […] The amount of ^3H in the superfusate samples was measured by liquid scintillation spectrometry.
Tritiurn efflux into the superfusate was calculated as the fraction of ^3H content in the synaptosomes at the onset of the respective collection period. […]
Data are expressed as the mean fractional ^3H release±S.E.M. Statistical differences between treatments were tested by Student's t test, two-tailed or the two-factor ANOVA as appropriate. Individual differences in the dose-response curve were evaluated by the Newman-Keuls multiple comparison test.

Biotin-huma7-5 [2] = tested on: Biotin-huma7-5; design: species or system human; conditions: read-out: IC50, 125I-α-BTX binding to Biotin-huma7-5
[3] = target: huma7 peptide / β-amyloid1-40 (Homo sapiens, UniProt P36544); test: Huma7 binding assay: 125I-β-amyloid1-40 binding to immobilized huma7 peptide
Chain of huma7 peptide / β-amyloid1-40 (P36544 193-224): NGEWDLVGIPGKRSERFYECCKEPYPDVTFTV

α7nAChR = target: T1, α7nAChR (Homo sapiens, UniProt P36544); test: α7nAChR binding assay: 125I-β-amyloid1-40 binding to α7SK-N-MC membranes (SPA); conditions: inhibition of 125I-β-amyloid1-40 (20 pM) binding to α7SK-N-MC membranes
T1 construct: expressed in transfected cells; host or cells: SK-N-MC (ATCC HTB-10), membranes
T1 sequence (P36544 23-502): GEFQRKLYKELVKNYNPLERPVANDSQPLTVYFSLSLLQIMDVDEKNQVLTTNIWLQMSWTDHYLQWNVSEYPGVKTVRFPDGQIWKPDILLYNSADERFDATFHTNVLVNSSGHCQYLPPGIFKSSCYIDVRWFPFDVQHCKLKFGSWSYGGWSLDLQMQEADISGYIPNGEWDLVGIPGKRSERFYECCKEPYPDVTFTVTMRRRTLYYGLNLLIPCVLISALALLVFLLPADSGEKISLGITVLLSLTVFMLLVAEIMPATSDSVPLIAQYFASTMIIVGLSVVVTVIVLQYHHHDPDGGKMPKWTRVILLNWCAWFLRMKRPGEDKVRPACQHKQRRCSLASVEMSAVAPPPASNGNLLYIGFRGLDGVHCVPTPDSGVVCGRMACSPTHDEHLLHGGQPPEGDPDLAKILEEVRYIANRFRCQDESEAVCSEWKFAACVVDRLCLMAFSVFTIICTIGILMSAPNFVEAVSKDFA
Description: α7nAChR (nicotinic acetylcholine receptor) binding assay: Membranes from recombinant SK-N-MC cells (ATCC#HTB-10) overexpressing α7nAChR (α7SK-N-MC) were prepared according to standard procedures (Wang et al, J. Biol Chem. 275, 5626-5632, 2000) except that the membranes were thoroughly washed. For each assay, membranes (20 μg) were precoupled to wheat germ agglutinin yittrium SPA beads (250 μg, Amersham) in 50 mM HEPES (pH 7.5) containing 0.01% BSA, 2 mM Mg^2+, 2 mM Ca^2+ and protease inhibitors (Boehringer Mannheim, Germany). […] At the end of the incubation (30 min), bound radioactivity was measured in a TopCount (Packard, Meriden, Conn.). Data were analyzed using Graphpad Prism software (Graphpad Software Incorporated).

Biotin-huma7-5 [4] = test: Fluo-β-amyloid1-42 binding assay to Biotin-huma7-5; design: species or system human
[5] = first phase, read-out: Calculated EC50 for biphasic response, EC50 - 1
[6] = second phase, read-out: Calculated EC50 for biphasic response, EC50 - 2

Compound | IC50 (Biotin-huma7-5 [2]) | EC50 (α7nAChR; [5]) | EC50 (α7nAChR; [6]) | further results
28 (ECCK) [compound 28] |  |  |  | ACh rel % Inh @ 100 μM [1]: 87%
CC(C)C[C@H](NC(=O)[C@H](CCCCN)NC(=O)[C@H](CCC(N)=O)NC(=O)[C@H](Cc1c[nH]cn1)NC(=O)[C@H](Cc1c[nH]cn1)NC(=O)[C@@H](N)C(C)C)C(=O)N[C@H](C(=O)N[C@@H](Cc1ccccc1)C(=O)N[C@@H](Cc1ccccc1)C(=O)N[C@@H](C)C(=O)N[C@@H](CCC(=O)O)C(=O)N[C@@H](CC(=O)O)C(=O)N[C@H](C(=O)NCC(=O)N[C@@H](CO)C(=O)N[C@@H](CC(N)=O)C(=O)N[C@@H](CCCCN)C(=O)O)C(C)C)C(C)C [Aβ12-28] | 400 nM |  |  | 
CCCN(CCC)C1Cc2c(O)ccc(O)c2CC1C (centres unmarked) [Inhibitor A] |  | 0.133 nM | 34700 nM | inhibition of 125I-β-amyloid1-40 binding to immobilized huma7 ([3]; 10 μM inhibitors, FIG. 2): can be inhibited
N[C@@H](Cc1ccc(O)cc1)C(=O)N1CCC[C@H]1C(=O)N[C@@H](Cc1c[nH]c2ccccc12)C(=O)N[C@@H](Cc1ccccc1)C(=O)O [YPWF peptide, YPWF] |  | 0.00351 nM | 20.3 nM | 
Aβ42: β-amyloid peptide1-42 |  |  |  | % Inh @ 100 μM, Fluo-β-amyloid1-42 binding to Biotin-huma7-5 (Biotin-huma7-5 [4]; 100 μM, 100 nM Fluo-β-amyloid1-42, 1 hr at 25° C.): 85%
α-bungarotoxin [α-BTX] | 100 nM |  |  | inhibition of 125I-β-amyloid1-40 binding to immobilized huma7 [3]: can be inhibited; % Inh @ 100 μM, Fluo-β-amyloid1-42 binding to Biotin-huma7-5 (Biotin-huma7-5 [4]): 100%
